# PMC8359193, “Summary of reference chemicals evaluated by the fish short‐term reproduction assay, OECD TG229, using Japanese Medaka, Oryzias latipes” (Journal of Applied Toxicology, 2021)
# Tested on: Japanese medaka (Oryzias latipes)
# Assay: Fish short-term reproduction assay (FSTRA, OECD TG229), 21-day flow-through exposure
# Conditions: for effect on female hepatic VTG, in words / LOEC on female SSC (papillary process formation on anal fin) / effect on fecundity (number of total eggs), in words: 21-day exposure; for LOEC on female SSC (papillary process formation on anal fin): measured conc.; for Fertility rate (%) / Mortality (%) Female / Mortality (%) Male / Number of fertilized eggs / Number of total eggs / SSC Female / SSC Male / VTG (ng/mg of liver) Female / VTG (ng/mg of liver) Male: 21 days; for GSI Female / GSI Male / HSI Female / HSI Male / Length Female / Length Male / Weight Female / Weight Male: at completion of exposure; for effect on fecundity (number of total eggs), in words: within the test concentrations
# Summary of the method: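 Japanese medaka (NIES-R strain, 16 ± 2 weeks old) were exposed in flow-through tanks for 3 weeks, three males and three females per tank, four replicate tanks per group, with a dilution water control. Concentrations were spaced by a factor of 2–5. Eggs were collected daily and counted as fertilized or unfertilized.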
smiles,measurement,setting,value
"C[C@]12CCC(=O)C=C1CC[C@@H]1[C@@H]2CC[C@@]2(C)[C@H]1CC[C@]2(C)O [MT, 17α‐methyltestosterone]","effect on female hepatic VTG, in words",,decreased
same,LOEC on female SSC (papillary process formation on anal fin),,20.1 ng/L
same,Fertility rate (%),measured conc. 20.1 ng/L,89%
same,Mortality (%) Female,measured conc. 20.1 ng/L,0%
same,Mortality (%) Male,measured conc. 20.1 ng/L,0%
same,Number of fertilized eggs,measured conc. 20.1 ng/L,23
same,Number of total eggs,measured conc. 20.1 ng/L,25 ± 4.6 /female/day
same,SSC Female,measured conc. 20.1 ng/L,28 ± 2.0
same,SSC Male,measured conc. 20.1 ng/L,104 ± 12
same,VTG (ng/mg of liver) Female,measured conc. 20.1 ng/L,"1,650 ± 134 ng/mg of liver"
same,VTG (ng/mg of liver) Male,measured conc. 20.1 ng/L,1.5 ± 0.3 ng/mg of liver
same,GSI Female,measured conc. 20.1 ng/L,13.5%
same,GSI Male,measured conc. 20.1 ng/L,0.68%
same,HSI Female,measured conc. 20.1 ng/L,4.8%
same,HSI Male,measured conc. 20.1 ng/L,2.5%
same,Length Female,measured conc. 20.1 ng/L,36.1 mm
same,Length Male,measured conc. 20.1 ng/L,37.3 mm
same,Weight Female,measured conc. 20.1 ng/L,592 mg
same,Weight Male,measured conc. 20.1 ng/L,546 mg
same,Fertility rate (%),measured conc. 77.4 ng/L,80%
same,Mortality (%) Female,measured conc. 77.4 ng/L,0%
same,Mortality (%) Male,measured conc. 77.4 ng/L,0%
same,Number of fertilized eggs,measured conc. 77.4 ng/L,8.1
same,Number of total eggs,measured conc. 77.4 ng/L,10 ± 2.9 /female/day
same,SSC Female,measured conc. 77.4 ng/L,78 ± 7.9
same,SSC Male,measured conc. 77.4 ng/L,106 ± 7.6
same,VTG (ng/mg of liver) Female,measured conc. 77.4 ng/L,"1,080 ± 391 ng/mg of liver"
same,VTG (ng/mg of liver) Male,measured conc. 77.4 ng/L,2.1 ± 0.3 ng/mg of liver
same,GSI Female,measured conc. 77.4 ng/L,18.6%
same,GSI Male,measured conc. 77.4 ng/L,0.78%
same,HSI Female,measured conc. 77.4 ng/L,4.4%
same,HSI Male,measured conc. 77.4 ng/L,2.4%
same,Length Female,measured conc. 77.4 ng/L,36.7 mm
same,Length Male,measured conc. 77.4 ng/L,38.3 mm
same,Weight Female,measured conc. 77.4 ng/L,694 mg
same,Weight Male,measured conc. 77.4 ng/L,603 mg
same,Fertility rate (%),measured conc. 300 ng/L,79%
same,Mortality (%) Female,measured conc. 300 ng/L,8.3%
same,Mortality (%) Male,measured conc. 300 ng/L,0%
same,Number of fertilized eggs,measured conc. 300 ng/L,1.4
same,Number of total eggs,measured conc. 300 ng/L,1.8 ± 1.1 /female/day
same,SSC Female,measured conc. 300 ng/L,85 ± 11
same,SSC Male,measured conc. 300 ng/L,112 ± 7.1
same,VTG (ng/mg of liver) Female,measured conc. 300 ng/L,320 ± 266 ng/mg of liver
same,VTG (ng/mg of liver) Male,measured conc. 300 ng/L,1.9 ± 0.6 ng/mg of liver
same,GSI Female,measured conc. 300 ng/L,12.6%
same,GSI Male,measured conc. 300 ng/L,0.68%
same,HSI Female,measured conc. 300 ng/L,4.2%
same,HSI Male,measured conc. 300 ng/L,2.5%
same,Length Female,measured conc. 300 ng/L,37.0 mm
same,Length Male,measured conc. 300 ng/L,37.5 mm
same,Weight Female,measured conc. 300 ng/L,654 mg
same,Weight Male,measured conc. 300 ng/L,561 mg
same,"effect on fecundity (number of total eggs), in words",,significantly reduced
"CC(=O)[C@H]1CC[C@H]2[C@@H]3CCC4=CC(=O)CC[C@]4(C)[C@H]3CC[C@]12C [P4, Progesterone]","effect on female hepatic VTG, in words",,no alteration
same,LOEC on female SSC (papillary process formation on anal fin),,11000 ng/L
same,GSI Female,"female, measured conc. 243 μg/L",36.9%
same,GSI Male,"male, measured conc. 11 μg/L",1.20%
same,HSI Male,"male, measured conc. 11 μg/L",2.0%
same,Length Male,"male, measured conc. 11 μg/L",36.9 mm
same,Weight Male,"male, measured conc. 11 μg/L",501 mg
same,GSI Male,"male, measured conc. 24 μg/L",1.04%
same,HSI Male,"male, measured conc. 24 μg/L",1.9%
same,Length Male,"male, measured conc. 24 μg/L",36.4 mm
same,Weight Male,"male, measured conc. 24 μg/L",475 mg
same,GSI Male,"male, measured conc. 64 μg/L",1.14%
same,HSI Male,"male, measured conc. 64 μg/L",2.8%
same,Length Male,"male, measured conc. 64 μg/L",37.1 mm
same,Weight Male,"male, measured conc. 64 μg/L",465 mg
same,GSI Male,"male, measured conc. 243 μg/L",1.15%
same,HSI Male,"male, measured conc. 243 μg/L",2.1%
same,Length Male,"male, measured conc. 243 μg/L",36.9 mm
same,Weight Male,"male, measured conc. 243 μg/L",479 mg
same,Fertility rate (%),measured conc. 11 μg/L,92%
same,Mortality (%) Female,measured conc. 11 μg/L,0%
same,Mortality (%) Male,measured conc. 11 μg/L,0%
same,Number of fertilized eggs,measured conc. 11 μg/L,17
same,Number of total eggs,measured conc. 11 μg/L,18 ± 3.8 /female/day
same,SSC Female,measured conc. 11 μg/L,11 ± 8.9
same,SSC Male,measured conc. 11 μg/L,109 ± 14
same,VTG (ng/mg of liver) Female,measured conc. 11 μg/L,746 ± 419 ng/mg of liver
same,VTG (ng/mg of liver) Male,measured conc. 11 μg/L,33 ± 29 ng/mg of liver
same,Fertility rate (%),measured conc. 24 μg/L,91%
same,Mortality (%) Female,measured conc. 24 μg/L,8%
same,Mortality (%) Male,measured conc. 24 μg/L,0%
same,Number of fertilized eggs,measured conc. 24 μg/L,16
same,Number of total eggs,measured conc. 24 μg/L,17 ± 4.0 /female/day
same,SSC Female,measured conc. 24 μg/L,21 ± 5.9
same,SSC Male,measured conc. 24 μg/L,108 ± 20
same,VTG (ng/mg of liver) Female,measured conc. 24 μg/L,818 ± 270 ng/mg of liver
same,VTG (ng/mg of liver) Male,measured conc. 24 μg/L,29 ± 22 ng/mg of liver
same,Fertility rate (%),measured conc. 64 μg/L,87%
same,Mortality (%) Female,measured conc. 64 μg/L,8%
same,Mortality (%) Male,measured conc. 64 μg/L,0%
same,Number of fertilized eggs,measured conc. 64 μg/L,15
same,Number of total eggs,measured conc. 64 μg/L,16 ± 6.5 /female/day
same,SSC Female,measured conc. 64 μg/L,35 ± 8.9
same,SSC Male,measured conc. 64 μg/L,101 ± 13
same,VTG (ng/mg of liver) Female,measured conc. 64 μg/L,"1,008 ± 445 ng/mg of liver"
same,VTG (ng/mg of liver) Male,measured conc. 64 μg/L,37 ± 27 ng/mg of liver
same,Fertility rate (%),measured conc. 243 μg/L,2.9%
same,Mortality (%) Female,measured conc. 243 μg/L,83%
same,Mortality (%) Male,measured conc. 243 μg/L,50%
same,Number of fertilized eggs,measured conc. 243 μg/L,0.2
same,Number of total eggs,measured conc. 243 μg/L,1.0 ± 2.3 /female/day
same,SSC Female,measured conc. 243 μg/L,32 ± 21
same,SSC Male,measured conc. 243 μg/L,100 ± 10
same,VTG (ng/mg of liver) Female,measured conc. 243 μg/L,899 ± 139 ng/mg of liver
same,VTG (ng/mg of liver) Male,measured conc. 243 μg/L,37 ± 36 ng/mg of liver
same,"effect on fecundity (number of total eggs), in words",,significant difference from the control
